Data on four compounds can be found in patent publication US20260146264A1, “METHODS FOR REPROGRAMMING AND GENE EDITING CELLS” (Factor Bioscience Inc., priority 2023, published 2026).

Entries after “also recorded” stand apart in the source; their conditions may differ.

The subject of series [1] is Control iMSCs.
Procedure: The cytotoxicity of small-molecule IDO1 inhibitors was assessed by flow cytometry after a 48 hour incubation with Control iMSCs. Viability is shown relative to PBS controls.
In series [2] the test system is pJet promoter. In words: Reactivation of silenced pJet promoter (GFP expression) during iPSC to iMSC differentiation. It counts as cell-based, human. To be noted: 10 μM, 24 hours on day 23 of differentiation, JeT-GFP cells. The text has this: • 1. Transfect hiPSCs with a chromatin context-sensitive gene editing endonuclease according to some embodiments of the present disclosure, mRNA and single stranded DNA repair templates encoding GFP sequence under JeT (“pJet”) and Ef1a promoters. • 2. Perform gDNA extraction and AAVS1 surveyor PCR to confirm ssDNA repair template integration at AAVS1 locus • 3. Perform single cell sorting to obtain homogeneous cell line started from a single cell • 4. Using Stemdiff™ Mesenchymal Progenitor kit, differentiate iPS cell lines inserted with pJet and Ef1a GFP sequence in their genomes into iMSCs. • 5. Verify robust iMSC differentiation using surface marker expression at the completion of differentiation.
FIG. 16A and FIG. 16B show the tracking of GFP expression under a pJet promoter during iPSC to iMSC differentiation. […] GFP was expressed from day 18 to 30 but was completely silenced on day 33.

The test system of series [3] is COL7A1_e73 gene-editing protein pair USN1 (US2L/US2R D450A) D450A in FokI domain of right protein (D67A of SEQ 80; mutant FokI domain is SEQ 81) (synthetic construct). Description: cell_activity. As to conditions: T7E1 assay, primary human fibroblasts; nickase pair, 58.7% relative insertion of 300 bp dsDNA donor vs 72.3% for US22.
Series [4] has as its system COL7A1_e73 gene-editing protein pair USN3 (US2L/US2R D467A) D467A in FokI domain of right protein (D84A of SEQ 80; mutant FokI domain is SEQ 83) (synthetic construct). Description: cell_activity. As to conditions: T7E1 assay, primary human fibroblasts; nickase pair.
Series [5] has as its system COL7A1_e73 gene-editing protein pair US22 (US2L/US2R, wild-type FokI domains) (synthetic construct). Description: cell_activity. As to conditions: T7E1 assay, primary human fibroblasts; 9.4% in iPSCs (p667).
Series [6] has as its system COL7A1_e73 gene-editing protein pair USN2 (US2L/US2R D450N) D450N in FokI domain of right protein (D67N of SEQ 80; mutant FokI domain is SEQ 82) (synthetic construct). In words: cell_activity. To be noted: T7E1 assay, primary human fibroblasts; 0.4% in iPSCs; nickase pair, 42.9% relative insertion of dsDNA donor in fibroblasts.

As for `NS(=O)(=O)NCCNc1nonc1C(=NO)Nc1ccc(F)c(Br)c1` [Epacadostat], the “cytotoxicity (viability relative to PBS controls)” value in series [1] is on record as “no significant difference relative to PBS”.
The same measure, in the same setting: under `C[C@@H](NC(=O)c1ccc(F)cc1)c1ccc2c(c1)CCN2C(=O)C1CCOCC1` [IDO1-IN-5] stands “mild cytotoxicity”.
On to `CC(/C=C/C(=O)NO)=C\[C@@H](C)C(=O)c1ccc(N(C)C)cc1` [Trichostatin A], for which the “GFP expression post TSA treatment” value was “temporary increase in GFP expression” in series [2]; “noticeable increase of GFP expression; also recorded: successfully demethylated and reactivated the pJet promoter” in series [2] (listed as TSA).
In the case of COL7A1 exon 73 target site, the activity in series [3] stood at 4.4 % NHEJ/MMEJ; in series [4], 11.1 % NHEJ/MMEJ; in series [5], 61.9 % NHEJ/MMEJ; in series [6], 3.1 % NHEJ/MMEJ.
